Reference: US20040023924A1, “Use of xyloglucan polymers and oligomers, and derivative compounds, as phytosanitary products and biofertilizers” (priority 2000, published 2004)

Columns and labels:
Type in all cases: cell-based, Acer pseudoplatanus L.
glycosylhydrolases = assay: Effect of effectors on the glycosylhydrolase elicitation responses; settings: okadaic acid 5 nM, boroglycine 500 nM; for Early glycosylhydrolase elicitation responses in the presence of the effector: cycloheximide 1 μM, modulation with the exception of 1,3 β-D-glucanase activity
Procedure: (§1) Test: 2.10^6 Acer pseudoplatanus L. cells were elicited under circular stirring (80 rpm), in 25 ml of culture medium (without 2,4-D) by 50 nM of 2′-fucosyl lactose (compound A) or 50 nM of methyl α-L-Fuc (1→2) β-D-Gal (1→2) β-D-Xyl trisaccharide (compound B)(synthesized according to Lopez et al., 1994) or for a variable time (0 to 42 hours) in the presence or not in the presence of an effector: cycloheximide (1 μM), okadaic acid (5 nM), staurosporine (500 nM), or boroglycine (500 nM). The elicitation experiment is stopped by putting the cells in ice. The cells recovered after decantation and taken up in approximately 1 ml of elicitation buffer are the subject of a specific protein extraction.
(§2) D-glycosylhydrolase extraction. The enzyme extracts are prepared from elicited or non-elicited cells. The cells are homogenized at 0° C. in Tris-HCl buffer (50 mM pH 7.2) containing 1 M of NaCl with a Vibracell™ Bioblock sonicator, maximum power, for 3 times 1 minute. The homogenates are centrifuged at 4° C. (12000 g, 15 minutes) then dialysed and concentrated on Ultrafree™ Millipore ultrafiltration units (cut-off threshold 10 kDa). The retentates, taken up in distilled water, are crude extracts.
(§3) Evaluation of the experimental data. At least 2 kinetics were carried out per sample, and per set of experiments. The reaction rate (ΔA410 minutes^−1 for example) is obtained by linear regression from 4 kinetic curves. The results are expressed by the ratio R (enzymatic activity in elicited cells/enzymatic activity in non-elicited control cells).

[1] = tested on: 1,3 β-D-glucanase (EC 3.2.1.39); assay: Induction of a 1,3 β-D-glucanase response in elicited cells; settings: elicited cells; cycloheximide (1 μM); late response
Procedure: (§4) Vegetable material: Acer pseudoplatanus L Cells in Suspension
as §1, §2
1,3 β-D-glucanase activity assay. This is based on colorimetric assay (ferricyanide test of Kidby and Davidson (1973) of the substrate reducing units (laminarin or laminarin hexamer) released during the hydrolysis. The reaction medium contains the enzyme extract (1 μg of proteins), the substrate (5 μM of reduced laminarin hexamer) in 100 μl of sodium acetate buffer (0.1 M), pH 5.0); the enzymatic reaction at 40° C. develops over a variable time (1 to 3 hours).
as §3

[2] = tested on: 1,4 β-D-glucanase (EC 3.2.1.4); assay: Induction of a 1,4 β-D-glucanase response in elicited cells; settings: elicited cells; cycloheximide (1 μM); late response
Procedure: as §4, §1, §2
1,4 β-D-glucanase activity assay. This is based on colorimetric assay (ferricyanide test of Kidby and Davidson (1973) of the cellopentaose substrate reducing units released during the hydrolysis. The reaction medium contains the enzyme extract (1 μg of proteins), reduced cellopentaose (4 μM) in 100 μl of sodium acetate buffer (0.1 M), pH 5.0); the enzymatic reaction at 40° C. develops over a variable time (1 to 3 hours).
as §3

[3] = tested on: Phospholipase D (E.C: 3.1.4.4); assay: Elicitation of phospholipase D activity (NBD-PE fluorescence); settings: methyl jasmonate 0 to 5 nM; 2′-fucosyl lactose 1 nM; dose-dependent
Excerpt: Vegetable material: Acer pseudoplatanus L. cells in Suspension
Phospholipase D (E.C: 3.1.4.4) (Plase D) activity: this is a phosphatidylcholine phosphatidohydrolase which releases the O-R3 group, according to the diagram below. To the extent that O-R3 is marked (a fluorochrome for example), quantifying this group is equivalent to assaying Plase D activity. For the experiments the substrate used is phosphatidylcholine conjugated to a fluorochrome, i.e. the product nitrobenzoxadiazole phosphoethanolamine (NBD-PE). The retained excitation and emission wavelengths of the fluorochrome are 460 nm and 534 nm respectively. [drawing 5]
Principle: assaying Plase D activity is equivalent to estimating the fluorescence variation at 534 nm of a reaction medium with a spectrofluorimeter (Perkin Elmer).
Test: the reaction medium in a microtitration plate well is as follows: 1.3 10^7 Acer pseudoplatanus L. cells are incubated in a 50 mM HEPES buffer, pH 6.8 enriched with CaCl2 (1 μM), ATP (2 μM), octyl-D-glucoside 50 μM, GTP (6 μM) in the presence of the NBD-PE substrate (4 μM), in the presence or absence of an elicitor (0-100 nM): 2′-fucosyl-lactose (FL), compound A; XXFGol, compound B, in the presence or not in the presence of a methyl jasmonate effector (0-5 nM). The Plase D activity assay is carried out by measuring the fluorescence at 534 nm.
Evaluation of the experimental data. For each sample at least three kinetics are recorded; the Plase D activity is given by the slope of the regression curve. The results are expressed by Δ F534 min^−1. One point on the graph corresponds to the linear regression treatment of at least 2 kinetic curves originating from 2 different samples.
The Plase D elicitation response is evaluated according to the fluorescence variation at […]; the 100% reference value corresponds to the fluorescence in the controls (non-elicited cells)

| Molecule | Early glycosylhydrolase elicitation responses in the presence of the effector (glycosylhydrolases) | Late glycosylhydrolase elicitation responses in the presence of the effector (glycosylhydrolases) | 1,3 β-D-glucanase late response R in the presence of cycloheximide [1] | 1,4 β-D-glucanase late response R in the presence of cycloheximide [2] | Plase D elicitation: methyl jasmonate versus 2′-fucosyl lactose [3] |
| --- | --- | --- | --- | --- | --- |
| boroglycine | modulated | not affected | – | – | – |
| C[C@@H]1C[C@@H]([C@H](O)CC2CC(=O)NC(=O)C2)C(=O)[C@@H](C)C1 [cycloheximide, reference compound] | maintained | – | ~3 | ~2 | – |
| CC/C=C\CC1C(=O)CCC1CC(=O)OC (centres unmarked) [methyl jasmonate, reference compound] | – | – | – | – | antagonistic |
| C=C1[C@@H](O)[C@@H]2O[C@]3(CC[C@H](/C=C/[C@@H](C)[C@@H]4CC(C)=C[C@@]5(O[C@H](C[C@@](C)(O)C(=O)O)CC[C@H]5O)O4)O3)CC[C@H]2O[C@@H]1[C@@H](O)C[C@H](C)[C@H]1O[C@@]2(CCCCO2)CC[C@H]1C [okadaic acid] | modulated | not affected | – | – | – |
